Assay results taken from patent US20250368666A1, “INDAZOLE COMPOUNDS” (TYRA BIOSCIENCES, INC., priority 2022, published 2025).

Columns and labels:
[1] = system: MDA-MB-453 cell line (FGFR4-Y367C); assay: Cancer cell line cell viability assay (Cell Titer-Glo), 120 hr; assay type: cell-based; conditions: Homo sapiens
Outline: (§1)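 5,000-20,000 cells/well o/n; cpd 9-pt 4x dil from 3 μM, n=3; 37° C/5% CO2; CTG 2.0 lumi; % DMSO ctrl; 4PL IC50.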

FGFR2 = molecular target: T1, FGFR2 (Homo sapiens, UniProt P21802); assay: Kinase binding assay (kinase-tagged T7 phage, affinity beads, qPCR), Kd; conditions: read-out: FGFR2 (Kd nM)
T1 construct: made in house; host or cells: E. coli (BL21-derived), T7 phage
T1 sequence (P21802 22-821): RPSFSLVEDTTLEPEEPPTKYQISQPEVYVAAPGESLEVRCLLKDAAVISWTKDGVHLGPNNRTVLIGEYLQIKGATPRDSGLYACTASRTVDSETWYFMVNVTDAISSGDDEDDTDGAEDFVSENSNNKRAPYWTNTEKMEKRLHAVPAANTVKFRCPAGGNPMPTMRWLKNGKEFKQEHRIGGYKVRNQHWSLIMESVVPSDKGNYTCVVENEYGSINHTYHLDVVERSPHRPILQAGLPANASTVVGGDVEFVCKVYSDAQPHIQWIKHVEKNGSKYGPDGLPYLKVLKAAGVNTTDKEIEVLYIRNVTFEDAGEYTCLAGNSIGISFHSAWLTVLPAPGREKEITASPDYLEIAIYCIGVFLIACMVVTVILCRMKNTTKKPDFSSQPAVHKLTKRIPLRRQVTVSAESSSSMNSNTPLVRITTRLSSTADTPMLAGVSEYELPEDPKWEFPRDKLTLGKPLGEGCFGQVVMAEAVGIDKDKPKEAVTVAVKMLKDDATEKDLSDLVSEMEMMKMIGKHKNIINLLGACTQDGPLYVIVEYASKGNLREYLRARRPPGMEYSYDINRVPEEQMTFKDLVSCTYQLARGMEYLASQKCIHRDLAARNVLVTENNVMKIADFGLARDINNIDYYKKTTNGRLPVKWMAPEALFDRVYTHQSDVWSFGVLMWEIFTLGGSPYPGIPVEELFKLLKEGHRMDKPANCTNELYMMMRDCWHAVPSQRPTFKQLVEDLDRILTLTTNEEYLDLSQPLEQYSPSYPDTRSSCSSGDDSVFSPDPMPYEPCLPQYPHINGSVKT
Outline: (§2)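 Competition binding of compounds against kinase-tagged T7 phage captured on immobilised biotinylated ligand beads; bead-bound kinase quantified by qPCR of eluates. 11-point 3-fold dilution, 0.9% DMSO final; Kd from Hill fit with slope fixed at −1.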

FGFR3 = molecular target: T2, FGFR3 (Homo sapiens, UniProt P22607); assay: as above; conditions: read-out: FGFR3 (Kd nM)
T2 construct: made in house; host or cells: E. coli (BL21-derived), T7 phage
T2 sequence (P22607 23-806): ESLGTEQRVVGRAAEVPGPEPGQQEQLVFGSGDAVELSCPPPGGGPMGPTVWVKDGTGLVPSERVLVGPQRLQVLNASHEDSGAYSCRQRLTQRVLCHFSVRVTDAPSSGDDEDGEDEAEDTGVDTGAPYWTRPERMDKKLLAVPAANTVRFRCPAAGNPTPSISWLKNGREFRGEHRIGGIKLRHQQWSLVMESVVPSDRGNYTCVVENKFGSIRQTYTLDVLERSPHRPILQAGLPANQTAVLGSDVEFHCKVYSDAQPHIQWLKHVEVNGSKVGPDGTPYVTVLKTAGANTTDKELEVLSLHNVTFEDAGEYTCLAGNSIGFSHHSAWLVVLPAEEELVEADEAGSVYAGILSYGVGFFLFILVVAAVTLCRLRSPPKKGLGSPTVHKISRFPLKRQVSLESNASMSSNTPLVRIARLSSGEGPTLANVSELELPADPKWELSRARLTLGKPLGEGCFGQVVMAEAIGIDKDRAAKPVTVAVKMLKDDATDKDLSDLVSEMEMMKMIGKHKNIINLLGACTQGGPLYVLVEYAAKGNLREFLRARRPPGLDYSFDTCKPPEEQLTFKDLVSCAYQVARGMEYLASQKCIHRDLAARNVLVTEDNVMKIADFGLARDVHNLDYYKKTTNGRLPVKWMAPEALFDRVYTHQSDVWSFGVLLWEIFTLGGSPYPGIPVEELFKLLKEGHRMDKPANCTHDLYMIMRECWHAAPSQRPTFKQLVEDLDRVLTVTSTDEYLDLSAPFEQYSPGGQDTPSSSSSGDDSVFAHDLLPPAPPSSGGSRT
Outline: as §2

FGFR3 (V555M) = molecular target: T3, FGFR3 (V555M) (Homo sapiens, UniProt P22607, V555M); assay: as above; conditions: V555M mutant; read-out: FGFR3 (V555M) (Kd nM)
T3 construct: made in house; host or cells: E. coli (BL21-derived), T7 phage
T3 sequence (P22607 23-806 V555M): as the sequence (P22607 23-806) above, with V533M counted along it
Outline: as §2

FGFR4 = molecular target: T4, FGFR4 (Homo sapiens, UniProt P22455); assay: as above; conditions: read-out: FGFR4 (Kd nM)
T4 construct: made in house; host or cells: E. coli (BL21-derived), T7 phage
T4 sequence (P22455 22-802): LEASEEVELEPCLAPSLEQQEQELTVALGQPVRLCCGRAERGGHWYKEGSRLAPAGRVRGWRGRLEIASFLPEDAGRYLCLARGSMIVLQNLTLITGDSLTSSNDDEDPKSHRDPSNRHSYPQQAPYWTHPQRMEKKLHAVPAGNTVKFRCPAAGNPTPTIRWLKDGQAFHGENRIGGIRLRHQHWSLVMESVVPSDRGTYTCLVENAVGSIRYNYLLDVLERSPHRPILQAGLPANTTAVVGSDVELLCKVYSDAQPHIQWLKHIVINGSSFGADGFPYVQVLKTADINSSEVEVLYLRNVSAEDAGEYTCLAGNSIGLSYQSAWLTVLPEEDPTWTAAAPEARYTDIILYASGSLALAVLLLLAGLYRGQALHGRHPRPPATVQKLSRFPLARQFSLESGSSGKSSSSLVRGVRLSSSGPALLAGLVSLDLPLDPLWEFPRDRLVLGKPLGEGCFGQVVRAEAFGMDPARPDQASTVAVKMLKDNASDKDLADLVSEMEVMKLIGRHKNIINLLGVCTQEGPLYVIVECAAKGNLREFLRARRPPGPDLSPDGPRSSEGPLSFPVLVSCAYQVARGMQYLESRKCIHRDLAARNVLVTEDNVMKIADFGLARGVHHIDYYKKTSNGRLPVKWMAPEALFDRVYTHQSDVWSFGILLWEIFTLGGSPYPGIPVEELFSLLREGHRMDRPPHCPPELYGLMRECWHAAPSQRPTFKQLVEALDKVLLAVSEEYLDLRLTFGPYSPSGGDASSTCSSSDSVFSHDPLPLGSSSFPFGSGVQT
Outline: as §2

FGFR1 = molecular target: T5, FGFR1 (Homo sapiens, UniProt P11362); assay: as above; conditions: read-out: FGFR1 (Kd nM)
T5 construct: made in house; host or cells: E. coli (BL21-derived), T7 phage
T5 sequence (P11362 22-822): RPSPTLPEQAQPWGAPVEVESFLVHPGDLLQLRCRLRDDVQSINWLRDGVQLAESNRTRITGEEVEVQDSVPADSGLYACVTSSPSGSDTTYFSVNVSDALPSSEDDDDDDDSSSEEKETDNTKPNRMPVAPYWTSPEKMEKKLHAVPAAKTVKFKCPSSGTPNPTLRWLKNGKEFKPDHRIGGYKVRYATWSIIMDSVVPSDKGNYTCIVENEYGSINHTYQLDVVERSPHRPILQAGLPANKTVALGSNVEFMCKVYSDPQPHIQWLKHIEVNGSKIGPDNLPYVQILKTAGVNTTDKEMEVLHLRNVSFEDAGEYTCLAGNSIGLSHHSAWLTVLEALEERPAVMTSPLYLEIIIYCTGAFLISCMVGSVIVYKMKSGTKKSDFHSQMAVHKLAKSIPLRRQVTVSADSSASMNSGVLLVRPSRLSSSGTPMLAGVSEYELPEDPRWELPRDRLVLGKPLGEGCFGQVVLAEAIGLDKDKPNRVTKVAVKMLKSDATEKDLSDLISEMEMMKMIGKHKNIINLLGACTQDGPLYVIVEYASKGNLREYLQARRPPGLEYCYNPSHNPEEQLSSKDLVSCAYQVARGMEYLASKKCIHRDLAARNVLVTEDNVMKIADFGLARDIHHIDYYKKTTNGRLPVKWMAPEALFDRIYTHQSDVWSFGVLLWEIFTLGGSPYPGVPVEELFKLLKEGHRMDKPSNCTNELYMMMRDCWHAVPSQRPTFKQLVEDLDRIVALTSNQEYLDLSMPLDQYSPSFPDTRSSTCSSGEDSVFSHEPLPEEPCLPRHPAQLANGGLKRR
Outline: as §2

[2] = system: RT112/84 cell line (FGFR3-fusion); assay: Cancer cell line cell viability assay (Cell Titer-Glo), 72 hr; assay type: cell-based; conditions: Homo sapiens, RT112/84, RT112/84 cell line (FGFR3-fusion)
Outline: as §1

[3] = system: KG-1 cell line (FGFR 1-fusion); assay: as above; assay type: cell-based; conditions: Homo sapiens, KG-1, KG-1 cell line (FGFR1-fusion)
Outline: as §1

[4] = system: KATO-III cell line (FGFR2 amplification); assay: as above; assay type: cell-based; conditions: Homo sapiens, KATO III
Outline: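 Cells seeded at 5,000-20,000/well, incubated overnight, then treated with a 9-dose, 4-fold dilution series from 3 μM in triplicate at 37° C, 5% CO2. Viability read by Cell Titer-Glo 2.0 luminescence as percent of DMSO control; IC50 from 4-parameter variable-slope sigmoidal fit.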

C[C@@H](Oc1ccc2[nH]nc(-c3cnc(N4CC(C)(NC(=O)CN(C)C)C4)c(F)c3)c2c1)c1c(Cl)cncc1Cl (stereo in doubt) [Example 156, N-(1-(5-(5-(1-(3,5-dichloropyridin-4-yl)ethoxy)-1H-indazol-3-yl)-3-fluoropyridin-2-yl)-3-methylazetidin-3-yl)-2-(dimethylamino)-acetamide] gave an IC50 [1] of 50 to 200 nM, a Kd (FGFR2) of 1 to 50 nM and a Kd (FGFR3) of 1 to 50 nM. It also gave a Kd (FGFR3 (V555M)) of 1 to 50 nM, a Kd (FGFR4) of 1 to 50 nM and a Kd (FGFR1) of 1 to 50 nM. It also gave an IC50 [2] of 0.1 to 50 nM, an IC50 [3] of 50 to 200 nM and an IC50 [4] of 0.1 to 50 nM.
Work on CNC1(C)CN(c2ccc(-c3n[nH]c4ccc(O[C@H](C)c5c(Cl)cnc(C)c5Cl)cc34)cn2)C1 [Example 76, 1-[5-[5-[(1R)-1-(3,5-dichloro-2-methyl-4-pyridyl)ethoxy]-1H-indazol-3-yl]-2-pyridyl]-N,3-dimethyl-azetidin-3-amine] yielded an IC50 [1] of 200 to 1000 nM, a Kd (FGFR2) of 1 to 50 nM and a Kd (FGFR3) of 1 to 50 nM. It also gave a Kd (FGFR3 (V555M)) of 1 to 50 nM, a Kd (FGFR4) of 1 to 50 nM and a Kd (FGFR1) of 1 to 50 nM. It also gave an IC50 [2] of 0.1 to 50 nM, an IC50 [3] of 50 to 200 nM and an IC50 [4] of 50 to 200 nM.
For Cc1ncc(Cl)c([C@@H](C)Oc2ccc3[nH]nc(-c4ccc(N5CC(C)(N6CCOCC6)C5)nc4)c3c2)c1Cl [Example 77, 4-[1-[5-[5-[(1R)-1-(3,5-dichloro-2-methyl-4-pyridyl)ethoxy]-1H-indazol-3-yl]-2-pyridyl]-3-methyl-azetidin-3-yl]morpholine], the IC50 [1] was 200 to 1000 nM, the Kd (FGFR2) was 1 to 50 nM and the Kd (FGFR3) was 1 to 50 nM. The Kd (FGFR3 (V555M)) was 1 to 50 nM, the Kd (FGFR4) was 1 to 50 nM and the Kd (FGFR1) was 1 to 50 nM. For the same compound, the IC50 [2] was 0.1 to 50 nM, the IC50 [3] was 200 to 1000 nM and the IC50 [4] was 50 to 200 nM.
In the case of Cc1ncc(Cl)c([C@@H](C)Oc2ccc3[nH]nc(-c4ccc(N5CC(C)(N(C)C)C5)nc4)c3c2)c1Cl [Example 78, 1-[5-[5-[(1R)-1-(3,5-dichloro-2-methyl-4-pyridyl)ethoxy]-1H-indazol-3-yl]-2-pyridyl]-N,N,3-trimethyl-azetidin-3-amine], the IC50 [1] is reported as 200 to 1000 nM, the Kd (FGFR2) is reported as 1 to 50 nM and the Kd (FGFR3) is reported as 1 to 50 nM. It also gave a Kd (FGFR3 (V555M)) of 1 to 50 nM, a Kd (FGFR4) of 1 to 50 nM and a Kd (FGFR1) of 1 to 50 nM. It also gave an IC50 [2] of 0.1 to 50 nM, an IC50 [3] of 200 to 1000 nM and an IC50 [4] of 50 to 200 nM.
For COc1cc2[nH]nc(-c3ccc(N4CC(C)(NCCO)C4)nc3)c2cc1O[C@H](C)c1c(Cl)cncc1Cl [Example 83, (R)-2-((1-(5-(5-(1-(3,5-dichloropyridin-4-yl)ethoxy)-6-methoxy-1H-indazol-3-yl)pyridin-2-yl)-3-methylazetidin-3-yl)amino)ethan-1-ol], the IC50 [1] was 0.1 to 50 nM, the Kd (FGFR2) was 1 to 50 nM and the Kd (FGFR3) was 1 to 50 nM. The Kd (FGFR3 (V555M)) was 1 to 50 nM, the Kd (FGFR4) was 1 to 50 nM and the Kd (FGFR1) was 1 to 50 nM. It also gave an IC50 [2] of 0.1 to 50 nM, an IC50 [3] of 50 to 200 nM and an IC50 [4] of 0.1 to 50 nM.
In the case of C[C@@H](Oc1ccc2[nH]nc(-c3cnc(N4CC(C)(NCC5CC5)C4)c(F)c3)c2c1)c1c(Cl)cncc1Cl [Example 106, (R)-N-(cyclopropylmethyl)-1-(5-(5-(1-(3,5-dichloropyridin-4-yl)ethoxy)-1H-indazol-3-yl)-3-fluoropyridin-2-yl)-3-methylazetidin-3-amine], the IC50 [1] is reported as 50 to 200 nM, the Kd (FGFR2) is reported as 1 to 50 nM and the Kd (FGFR3) is reported as 1 to 50 nM. For the same compound, the Kd (FGFR3 (V555M)) was 1 to 50 nM, the Kd (FGFR4) was 1 to 50 nM and the Kd (FGFR1) was 1 to 50 nM. For the same compound, the IC50 [2] was 0.1 to 50 nM, the IC50 [3] was 50 to 200 nM and the IC50 [4] was 50 to 200 nM.
For CC(C)CNC1(C)CN(c2ncc(-c3n[nH]c4ccc(O[C@H](C)c5c(Cl)cncc5Cl)cc34)cc2F)C1 [Example 138, 1-[5-[5-[(1R)-1-(3,5-dichloro-4-pyridyl)ethoxy]-1H-indazol-3-yl]-3-fluoro-2-pyridyl]-N-isobutyl-3-methyl-azetidin-3-amine], the IC50 [1] was 50 to 200 nM, the Kd (FGFR2) was 1 to 50 nM and the Kd (FGFR3) was 1 to 50 nM. It also gave a Kd (FGFR3 (V555M)) of 1 to 50 nM, a Kd (FGFR4) of 1 to 50 nM and a Kd (FGFR1) of 1 to 50 nM. It also gave an IC50 [2] of 0.1 to 50 nM, an IC50 [3] of 50 to 200 nM and an IC50 [4] of 0.1 to 50 nM.
With C=CCC1(N)CN(c2ccc(-c3n[nH]c4ccc(O[C@H](C)c5c(Cl)cncc5Cl)cc34)nn2)C1 [Example 274, (R)-3-allyl-1-(6-(5-(1-(3,5-dichloropyridin-4-yl)ethoxy)-1H-indazol-3-yl)pyridazin-3-yl)azetidin-3-amine] the IC50 [1] was 200 to 1000 nM, the Kd (FGFR3) was 1 to 50 nM and the Kd (FGFR1) was 1 to 50 nM. The IC50 [2] was 0.1 to 50 nM, the IC50 [3] was 50 to 200 nM and the IC50 [4] was 0.1 to 50 nM.
Work on C[C@@H](Oc1ccc2[nH]nc(-c3cnc(N4CC(N)(c5cnn(C)c5)C4)c(F)c3)c2c1)c1c(Cl)cncc1Cl [Example 277, (R)-1-(5-(5-(1-(3,5-dichloropyridin-4-yl)ethoxy)-1H-indazol-3-yl)-3-fluoropyridin-2-yl)-3-(1-methyl-1H-pyrazol-4-yl)azetidin-3-amine] yielded an IC50 [1] of 0.1 to 50 nM, a Kd (FGFR3) of 1 to 50 nM and a Kd (FGFR1) of 1 to 50 nM. The IC50 [2] was 0.1 to 50 nM, the IC50 [3] was 50 to 200 nM and the IC50 [4] was 0.1 to 50 nM.
C[C@@H](Oc1ccc2[nH]nc(-c3ccc(N4CC(N)(Cc5ccnn5C)C4)nn3)c2c1)c1c(Cl)cncc1Cl [Example 281, (R)-1-(6-(5-(1-(3,5-dichloropyridin-4-yl)ethoxy)-1H-indazol-3-yl)pyridazin-3-yl)-3-((1-methyl-1H-pyrazol-5-yl)methyl)azetidin-3-amine] gave an IC50 [1] of 200 to 1000 nM, a Kd (FGFR3) of 1 to 50 nM and a Kd (FGFR1) of 1 to 50 nM. For the same compound, the IC50 [2] was 0.1 to 50 nM, the IC50 [3] was 50 to 200 nM and the IC50 [4] was 0.1 to 50 nM.
Compound C[C@@H](Oc1ccc2[nH]nc(-c3cnc(N4CC(N)(Cc5ccn(C)n5)C4)c(F)c3)c2c1)c1c(Cl)cncc1Cl [Example 282, (R)-1-(5-(5-(1-(3,5-dichloropyridin-4-yl)ethoxy)-1H-indazol-3-yl)-3-fluoropyridin-2-yl)-3-((1-methyl-1H-pyrazol-3-yl)methyl)azetidin-3-amine] has an IC50 [1] of 50 to 200 nM, a Kd (FGFR3) of 1 to 50 nM and a Kd (FGFR1) of 1 to 50 nM. For the same compound, the IC50 [2] was 0.1 to 50 nM, the IC50 [3] was 50 to 200 nM and the IC50 [4] was 50 to 200 nM.
C[C@@H](Oc1ccc2[nH]nc(-c3cnc(N4CC(N)(Cc5ccnn5C)C4)c(F)c3)c2c1)c1c(Cl)cncc1Cl [Example 283, (R)-1-(5-(5-(1-(3,5-dichloropyridin-4-yl)ethoxy)-1H-indazol-3-yl)-3-fluoropyridin-2-yl)-3-((1-methyl-1H-pyrazol-5-yl)methyl)azetidin-3-amine] was tested, and the IC50 [1] was 0.1 to 50 nM, the Kd (FGFR3) was 1 to 50 nM and the Kd (FGFR1) was 1 to 50 nM. The IC50 [2] was 0.1 to 50 nM, the IC50 [3] was 0.1 to 50 nM and the IC50 [4] was 0.1 to 50 nM.
C[C@@H](Oc1ccc2[nH]nc(-c3cnc(N4CC(N)(CCF)C4)c(F)c3)c2c1)c1c(Cl)cncc1Cl [Example 284, (R)-1-(5-(5-(1-(3,5-dichloropyridin-4-yl)ethoxy)-1H-indazol-3-yl)-3-fluoropyridin-2-yl)-3-(2-fluoroethyl)azetidin-3-amine] gave an IC50 [1] of 0.1 to 50 nM, a Kd (FGFR3) of 1 to 50 nM and a Kd (FGFR1) of 1 to 50 nM. It also gave an IC50 [2] of 0.1 to 50 nM, an IC50 [3] of 50 to 200 nM and an IC50 [4] of 0.1 to 50 nM.
C[C@@H](Oc1ccc2[nH]nc(-c3ccc(N4CC(N)(CCC#N)C4)nn3)c2c1)c1c(Cl)cncc1Cl [Example 285, (R)-3-(3-amino-1-(6-(5-(1-(3,5-dichloropyridin-4-yl)ethoxy)-1H-indazol-3-yl)pyridazin-3-yl)azetidin-3-yl)propanenitrile] showed an IC50 [1] of 200 to 1000 nM, a Kd (FGFR3) of 1 to 50 nM and a Kd (FGFR1) of 1 to 50 nM. It also gave an IC50 [2] of 0.1 to 50 nM, an IC50 [3] of 0.1 to 50 nM and an IC50 [4] of 0.1 to 50 nM.
Work on C[C@@H](Oc1ccc2[nH]nc(-c3ccc(N4CC(N)(Cc5cnn(C)c5)C4)nn3)c2c1)c1c(Cl)cncc1Cl [Example 289, (R)-1-(6-(5-(1-(3,5-dichloropyridin-4-yl)ethoxy)-1H-indazol-3-yl)pyridazin-3-yl)-3-((1-methyl-1H-pyrazol-4-yl)methyl)azetidin-3-amine] yielded an IC50 [1] of 200 to 1000 nM, a Kd (FGFR3) of 1 to 50 nM and a Kd (FGFR1) of 1 to 50 nM. It also gave an IC50 [2] of 0.1 to 50 nM, an IC50 [3] of 200 to 1000 nM and an IC50 [4] of 50 to 200 nM.
C[C@@H](Oc1ccc2[nH]nc(-c3cnc(N4CC(N)(Cc5cnn(C)c5)C4)c(F)c3)c2c1)c1c(Cl)cncc1Cl [Example 290, (R)-1-(5-(5-(1-(3,5-dichloropyridin-4-yl)ethoxy)-1H-indazol-3-yl)-3-fluoropyridin-2-yl)-3-((1-methyl-1H-pyrazol-4-yl)methyl)azetidin-3-amine] gave an IC50 [1] of 50 to 200 nM, a Kd (FGFR3) of 1 to 50 nM and a Kd (FGFR1) of 1 to 50 nM. The IC50 [2] was 0.1 to 50 nM, the IC50 [3] was 50 to 200 nM and the IC50 [4] was 50 to 200 nM.
